Data published in US11072598B2, “Somatostatin modulators and uses thereof” (CRINETICS PHARMACEUTICALS, INC., priority 2017, dated 2021).
Where two headings read alike, the source gives them in different places.

How the values were obtained:
[1] = target: T1, hSSTR4 (Homo sapiens, UniProt P31391); experiment: inhibition of cAMP via hSSTR4; type: cell-based; details: for EC50: cAMP inhibition, Table C, read-out: hSST4 (EC50); for hSST4/hSST2 (ratio): selectivity for inhibition of cAMP via hSSTR2 vs. hSSTR4
T1 construct: expressed in transfected cells
T1 sequence (P31391 whole entry): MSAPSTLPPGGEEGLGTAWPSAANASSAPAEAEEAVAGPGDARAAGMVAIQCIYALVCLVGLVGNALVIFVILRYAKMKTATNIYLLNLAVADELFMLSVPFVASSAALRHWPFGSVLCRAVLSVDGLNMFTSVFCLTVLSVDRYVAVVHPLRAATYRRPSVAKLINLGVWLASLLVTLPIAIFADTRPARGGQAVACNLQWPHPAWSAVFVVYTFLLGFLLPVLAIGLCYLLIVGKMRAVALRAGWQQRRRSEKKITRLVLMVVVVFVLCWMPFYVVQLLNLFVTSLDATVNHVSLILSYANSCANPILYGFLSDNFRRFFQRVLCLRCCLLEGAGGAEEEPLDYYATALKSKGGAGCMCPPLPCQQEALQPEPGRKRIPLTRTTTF
Excerpt: General overview: All five SSTR subtypes are Gi coupled G-protein coupled receptors (GPCRs) that lead to decreases in intracellular cyclic AMP (cAMP) when activated by an agonist. Therefore, measurement of intracellular cAMP levels can be used to assess whether compounds of the invention are agonists of SSTR subtypes (John Kelly, Troy Stevens, W. Joseph Thompson, and Roland Seifert, Current Protocols in Pharmacology, 2005, 2.2.1-2.2). One example of an intracellular cAMP assay is described below. cAMP assay protocol:
Four days prior to the assay, 5,000 Chinese hamster ovary cells (CHO-K1, ATCC #CCL-61) stably expressing the human somatostatin receptor subtype 2 are plated in each well of a 96-well tissue culture-treated plate in Ham's F12 growth media (ThermoFisher #10-080-CM) supplemented with 10% donor bovine serum (Gemini Bio-Products #100-506), 100 U/mL penicillin; 100 ug/mL streptomycin; 2 mM L-glutamine (Gemini Bio-Products #400-110) and 0.2 mg/mL hygromycin B (GoldBio #31282-04-9). The cells are cultured at 37° C., 5% CO2 and 95% humidity. On the day of the assay, the media is aspirated and the cells are treated with 50 μL of 1.6 μM NKH477 (Sigma #N3290) plus various dilutions of compounds of the invention in assay buffer [1× Hank's Balanced Salt Solution (ThermoFisher #SH3058802), 0.5 mM HEPES pH 7.4, 0.1% bovine serum albumin, 0.2 mM 3-Isobutyl-1-methylxanthine (IBMX, VWR #200002-790)]. The cells are incubated for 20 minutes at 37° C. (the final concentration of the compounds of the invention are typically 0-10,000 nM). The cells are treated with 50 μL of lysis buffer (HRTF cAMP kit, Cisbio). The lysate is transferred to 384-well plates and cAMP detection and visualization antibodies are added and incubated for 1-24 hours at room temperature. The time-resolved fluorescent signal is read with a Tecan M1000Pro multiplate reader. The intracellular cAMP concentrations are calculated by regression to a standard curve and are plotted vs. the concentration of the compounds of the invention and the EC50 of the compounds are calculated using standard methods. All data manipluations are in GraphPad Prism v6.

[2] = target: T2, hERG ion channel (Homo sapiens, UniProt Q12809); experiment: hERG fluorescence polarization assay (Predictor kit); type: binding; details: tracer displacement, membrane fractions; read-out: hERG inh.
T2 construct: purchased ThermoFisher Scientific PV5365
T2 sequence (Q12809 whole entry): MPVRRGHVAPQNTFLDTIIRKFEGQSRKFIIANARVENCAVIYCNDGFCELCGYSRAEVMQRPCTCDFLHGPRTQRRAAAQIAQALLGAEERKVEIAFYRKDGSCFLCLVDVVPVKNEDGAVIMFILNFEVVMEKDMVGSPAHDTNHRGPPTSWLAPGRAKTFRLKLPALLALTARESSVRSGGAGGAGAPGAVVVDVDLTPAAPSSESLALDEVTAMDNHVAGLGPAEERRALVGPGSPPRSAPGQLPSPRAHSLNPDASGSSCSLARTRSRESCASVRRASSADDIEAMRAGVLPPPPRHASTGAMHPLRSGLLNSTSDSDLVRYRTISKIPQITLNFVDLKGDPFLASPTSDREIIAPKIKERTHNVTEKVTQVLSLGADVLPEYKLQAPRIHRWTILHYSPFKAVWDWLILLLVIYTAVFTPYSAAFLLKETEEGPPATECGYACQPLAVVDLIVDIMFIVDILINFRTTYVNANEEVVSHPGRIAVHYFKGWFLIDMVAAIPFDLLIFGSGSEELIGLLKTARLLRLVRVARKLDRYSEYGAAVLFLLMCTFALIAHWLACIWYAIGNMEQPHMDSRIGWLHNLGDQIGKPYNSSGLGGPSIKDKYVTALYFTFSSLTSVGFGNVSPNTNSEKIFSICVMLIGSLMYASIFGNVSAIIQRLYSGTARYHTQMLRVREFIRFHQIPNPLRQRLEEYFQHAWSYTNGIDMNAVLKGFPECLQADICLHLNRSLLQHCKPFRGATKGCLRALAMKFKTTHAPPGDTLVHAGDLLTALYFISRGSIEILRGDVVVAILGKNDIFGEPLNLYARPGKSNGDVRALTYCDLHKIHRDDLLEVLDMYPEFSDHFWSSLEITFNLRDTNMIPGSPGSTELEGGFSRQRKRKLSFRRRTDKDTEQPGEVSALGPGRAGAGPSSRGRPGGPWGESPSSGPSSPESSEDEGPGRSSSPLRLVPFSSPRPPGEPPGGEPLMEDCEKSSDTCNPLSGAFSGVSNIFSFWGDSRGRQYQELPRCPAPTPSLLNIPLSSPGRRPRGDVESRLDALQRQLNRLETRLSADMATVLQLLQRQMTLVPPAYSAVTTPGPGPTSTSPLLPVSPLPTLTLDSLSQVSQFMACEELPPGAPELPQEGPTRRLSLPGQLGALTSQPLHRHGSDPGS
Method: On the day of the assay, various dilutions of test articles of the invention are prepared in assay buffer (Predictor™ hERG Fluorescence Polarization Assay Kit, ThermoFisher Scientific #PV5365) and dilutions are added to membranes fractions that contain the functional hERG ion channel (supplied by the kit). […] Under normal conditions, the tracer binds to the hERG channel and the fluorecence polarization measured is high. […] The concentration of free tracer is measured via fluorescence polarization using parameters prescribed in the kit with a Tecan M1000Pro multiplate reader. […] The fluorescence polarization is plotted versus test article concentration and an IC50 for hERG inhibition is calculated using standard methods. All data manipluations are in GraphPad Prism v6.

[3] = target: T3, human somatostatin receptor subtype 2 (Homo sapiens, UniProt P30874); experiment: cAMP functional assay for SSTR2 agonists; type: cell-based
T3 construct: expressed in transfected cells
T3 sequence (P30874 whole entry): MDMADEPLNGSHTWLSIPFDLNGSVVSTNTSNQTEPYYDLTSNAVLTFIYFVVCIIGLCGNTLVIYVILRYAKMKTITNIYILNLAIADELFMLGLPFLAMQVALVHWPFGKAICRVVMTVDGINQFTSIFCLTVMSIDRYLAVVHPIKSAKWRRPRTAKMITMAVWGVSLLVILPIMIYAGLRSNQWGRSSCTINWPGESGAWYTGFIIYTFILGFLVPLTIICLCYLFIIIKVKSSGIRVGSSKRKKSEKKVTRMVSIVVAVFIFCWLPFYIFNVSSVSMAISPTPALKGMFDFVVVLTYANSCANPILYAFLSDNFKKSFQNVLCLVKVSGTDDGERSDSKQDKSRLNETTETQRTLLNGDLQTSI
Outline: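 CHO-K1 cells stably expressing human SSTR2 were treated for 20 min at 37 °C with compound plus NKH477 (added as 1.6 μM) in HBSS with IBMX. Intracellular cAMP was measured by HTRF against a standard curve. EC50 values came from concentration-response curves.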

[4] = target: T4, human CYP2D6 isozyme (Homo sapiens, UniProt P10635); experiment: CYP2D6 assay (Vivid CYP2D6 Blue Screening Kit); type: in vitro ADME; details: CYP450 microsomes, fluorogenic substrate; read-out: CYP2D6 inh.
T4 construct: purchased ThermoFisher Scientific P2972
T4 sequence (P10635 whole entry): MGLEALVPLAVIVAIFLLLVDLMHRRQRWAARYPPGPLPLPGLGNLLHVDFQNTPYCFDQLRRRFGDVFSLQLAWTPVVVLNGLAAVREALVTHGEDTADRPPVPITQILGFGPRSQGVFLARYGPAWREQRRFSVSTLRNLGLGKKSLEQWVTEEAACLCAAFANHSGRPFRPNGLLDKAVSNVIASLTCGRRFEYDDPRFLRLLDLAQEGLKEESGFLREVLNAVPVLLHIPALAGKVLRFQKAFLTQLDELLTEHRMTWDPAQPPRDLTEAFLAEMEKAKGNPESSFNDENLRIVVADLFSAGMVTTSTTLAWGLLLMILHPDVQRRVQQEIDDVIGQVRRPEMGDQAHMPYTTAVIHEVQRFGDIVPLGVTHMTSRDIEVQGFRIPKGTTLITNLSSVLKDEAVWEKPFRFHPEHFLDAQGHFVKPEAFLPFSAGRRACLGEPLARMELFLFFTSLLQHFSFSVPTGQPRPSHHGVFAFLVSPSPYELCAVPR
Method: On the day of the assay, various dilutions of test articles of the invention are prepared in assay buffer (Vivid® CYP2D6 Blue Screening Kit, ThermoFisher Scientific #P2972) and dilutions are added to a preparation of CYP450 microsomes expressing the functional human CYP2D6 isozyme (supplied by the kit) and incubated for 15 minutes at 37° C. to allow interactions between the test article of invention and the enzyme in the absence of enzyme turnover. The enzymatic reaction is initiated by addition of the NADPH co-factor in the precense of the fluorogenic substrate. Under normal conditions, this substrate (which is not fluorescent) is cleaved by active CYP2D6 to produce a a fluorescent product. When in the presence of test article, the lack of appearance of the fluorescent product is evidence of inhibition of the CYP2D6 enzyme by the test article. The enzymatic reaction is allowed to proceed for 30 minutes at […] and then terminated by the addition of 0.5 M Tris pH 10.8. The concentration of fluorescent cleavage product is measured using spectroscopic parameters prescribed in the kit with a Tecan M1000Pro multiplate reader. The percent inhibition is calculated based on the fluorescence intensity observed in the presence of the positive control inhibitor, quinidine (Sigma #Q3625), included in each assay. The percent inhibition is plotted versus test article concentration and an IC50 for CYP2D6 inhibition is calculated using standard methods. All data manipluations are in GraphPad Prism v6.

[5] = cAMP inhibition, Table C, read-out: hSST2 (EC50)
[6] = inhibition of cAMP activities via human SST2 receptor (SSTR2), CHO-K1 cells, read-out: EC50

Row | EC50 [1] | hSST4/hSST2 (ratio) [1] | EC50 [3, 5] | EC50 [3, 6] | IC50 [4] | Compound | IC50 [2]
1 | 0.7 nM | b (between 15 and 50) | 0.03 nM | < 10 nM | > 5000 nM | Cc1cc(F)cc(-c2cnc(N)c(-c3nc4cc(Cl)ccc4[nH]3)c2N2CCC(N)CC2)c1 [Compound 1-1, 4-(4-aminopiperidin-1-yl)-3-(5-chloro-1H-1,3-benzodiazol-2-yl)-5-(3-fluoro-5-methylphenyl)pyridin-2-amine] | > 5000 nM
2 | 1.3 nM | b (between 15 and 50) | 0.05 nM | < 10 nM | > 5000 nM | Cc1cc(F)cc(-c2cnc(N)c(-c3nc4cc(F)cc(F)c4[nH]3)c2N2CCC(N)CC2)c1 [Compound 1-2, 4-(4-aminopiperidin-1-yl)-3-(5,7-difluoro-1H-1,3-benzodiazol-2-yl)-5-(3-fluoro-5-methylphenyl)pyridin-2-amine] | > 5000 nM
3 | 0.92 nM | b (between 15 and 50) | 0.06 nM | < 10 nM | > 5000 nM | Cc1cc(F)cc(-c2cnc(N)c(-c3nc4cc(F)ccc4[nH]3)c2N2CCC(N)CC2)c1 [Compound 1-6, 4-(4-aminopiperidin-1-yl)-3-(5-fluoro-1H-1,3-benzodiazol-2-yl)-5-(3-fluoro-5-methylphenyl)pyridin-2-amine] | > 5000 nM
4 | 0.71 nM | c (between 2.5 and 15) | 0.27 nM | < 10 nM | > 5000 nM | Cc1cc(F)cc(-c2cnc(N)c(-c3nc4cccc(F)c4[nH]3)c2N2CCC(N)CC2)c1 [Compound 1-11, 4-(4-aminopiperidin-1-yl)-3-(7-fluoro-1H-1,3-benzodiazol-2-yl)-5-(3-fluoro-5-methylphenyl)pyridin-2-amine] | > 5000 nM
5 | 14 nM | a (above 50) | 0.06 nM | < 10 nM | > 5000 nM | Cc1cc(F)cc(-c2cnc(N)c(-c3nc4cc(C#N)ccc4[nH]3)c2N2CCC(N)CC2)c1 [Compound 1-12, 2-[2-amino-4-(4-aminopiperidin-1-yl)-5-(3-fluoro-5-methylphenyl)pyridin-3-yl]-1H-1,3-benzodiazole-5-carbonitrile] | > 5000 nM
6 | 15 nM | a (above 50) | 0.18 nM | < 10 nM | > 5000 nM | CNc1ncc(-c2cc(C)cc(F)c2)c(N2CCC(N)CC2)c1-c1nc2cc(F)cc(F)c2[nH]1 [Compound 1-48, 4-(4-aminopiperidin-1-yl)-3-(5,7-difluoro-1H-1,3-benzodiazol-2-yl)-5-(3-fluoro-5-methylphenyl)-N-methylpyridin-2-amine] | > 5000 nM

More lines, now with the values behind:

Row | Compound | EC50 [1] | hSST4/hSST2 (ratio) [1] | EC50 [3, 5] | EC50 [3, 6] | IC50 [4] | IC50 [2]
7 | Cc1cc(F)cc(-c2cncc(-c3nc4cc(C#N)ccc4[nH]3)c2N2CCC(N)CC2)c1 [R^1=H, R^5=H, R^6=5-CN, R^7=H, reference compound] | 1.2 nM | c (between 2.5 and 15) | 0.13 nM | – | > 5000 nM | < 5000 nM
8 | Cc1cc(F)cc(-c2cncc(-c3nc4cc(F)ccc4[nH]3)c2N2CCC(N)CC2)c1 [R^1=H, R^5=H, R^6=5-F, R^7=H, reference compound] | 0.12 nM | – | – | – | < 5000 nM | –
9 | Cc1cc(F)cc(-c2cncc(-c3nc4cccc(F)c4[nH]3)c2N2CCC(N)CC2)c1 [R^1=H, R^5=H, R^6=H, R^7=7-F, reference compound] | 0.09 nM | e (below 1) | 0.43 nM | – | < 5000 nM | > 5000 nM
